Key:
[1] = system: rat hypophysis (GH release); experiment: Assay of the growth hormone (GH): GHRH-elicited GH release, superfusion method; type: cell-based; conditions: percentage of decrease (-) or increase (+) in GH amount released by GHRH
Method: The release or inhibition, respectively, of the release of GH were measured on rat hypophysis by using the superfusion method [Vigh et al.: Peptides 5, 241 (1984)]. As control, the GH amount was considered which was released by the GH releasing hormone (GHRH) given in the same dose as the sample. The activity of the somatostatin analogue was expressed as the percentage of decrease or increase, respectively, in the GH amount released by GHRH (Table II).

[2] = system: MCF 7: tumour cell line of human breast origin; experiment: Assay of the inhibition of cell division, MCF 7; type: cell-based
Method: (§1) The incorporation of [^3 H]-thymidine to tumour cells of various origin and measurement of the cell count were carried out according to the method of Keri et al. [Tumor Biology 9, 315 (1988)]. The biological activity of the analogues was expressed as the percentage of inhibition of the labelled thymidine incorporation or increase in the count of untreated cells used as control (Table III).

[3] = system: HT 29: tumour cell line of human colon origin; experiment: Assay of the inhibition of cell division, HT 29; type: cell-based
Method: as §1

[4] = system: tyrosine kinase (HT 29 cells); experiment: Assay of the tyrosine kinase activity, HT 29 cells; type: cell-based, human
Method: The tyrosine kinase activity was also determined according to the method of Keri et al. [Tumor Biology 9, 315 (1988)]. The activity of the analogues was characterized on the basis of their inhibitory effect in comparison to the incorporation of ^32 p isotope to untreated cells used as control (Table IV).

Substance: D-Phe-Tyr-Tyr-Aa-Lys-Val-Phe-Trp-NH2 [Example 6]
- Change of GH release [1]: +26%
- Inhibition (%) of cell division ([2]; MCF 7, dose 40 μg): 48%

Substance: Ac-Sar-Ala-Tyr-Tyr-Aa-Lys-Val-Phe-Trp-NH2 [Example 7]
- Inhibition (%) of cell division ([3]; HT 29, dose 10 μg): 28%
- Change of GH release [1]: -20%
- Inhibition (%) of cell division ([2]; MCF 7, dose 20 μg): 24%
- Inhibition (%) of tyrosine kinase activity ([4]; HT 29, dose 10 μg): 17%
- Inhibition (%) of tyrosine kinase activity ([4]; HT 29, dose 30 μg): 23%

Substance: D-Phe-Cys-Tyr-D-Trp-Lys-Val-Cys-Thr-NH2 [Example 2]
- Inhibition (%) of cell division ([3]; HT 29, dose 20 μg): 27%
- Change of GH release [1]: -93%
- Inhibition (%) of cell division ([2]; MCF 7, dose 20 μg): 45%
- Inhibition (%) of tyrosine kinase activity ([4]; HT 29, dose 1 μg, 32P incorporation vs untreated cells): 35%
- Inhibition (%) of tyrosine kinase activity ([4]; HT 29, dose 10 μg): 22%

From patent US5480870A, “Tumor growth-inhibiting somatostatin analogues, pharmaceutical compositions containing them and process for preparing same” (Biosignal Kutato-Fejlesztokft, priority 1991, dated 1996)
